According to US6200989A, “2-alkylidene hydroxycumaranone derivatives” (Hoffmann-La Roche Inc., priority 1997, dated 2001):

What follows are molecules tested against uPAR (Homo sapiens, UniProt Q03405) (assay: ELISA test: inhibition of human urokinase (uPA) binding to its specific receptor uPAR). Details: test substance preincubated 30 min at room temperature.
Experimental: Compounds of the invention were tested (ELISA test) as inhibitors of human urokinase (uPA) binding to its specific receptor uPAR mAk (BIO-R4), according to the procedure described in Biol. Chem. Hoppe-Seyler, 376, 587-94 (1995) by Rettenberger et al. The assays are performed in Microtiterplates (96 wells). The following solutions are used:
washing buffer PBS-buffer (without Mg^2+ and Ca^2+)+0.05% Tween 20;
incubation buffer (IP): 1% skimmed milk powder in PBS-buffer (without Mg^2+ and Ca^2+);
BIO-R4 solution: 50 ng/well (0.5 (g/ml; 100 (l/well) in IP;
uPAR solution: 3 ng/well (30 ng/ml; 100 (l/well) in PBS-buffer (without Mg^2+ and Ca^2+);
blocking solution: 1% skimmed milk powder in washing buffer (dissolved at 37° C.);
uPA solution: 0.25 ng/well (5 ng/ml; 50 (l/well) in IP.
Detect ion solutions (per microtiterplate):
(1) 6 ml (100 mM Tris-Cl pH 7.2+0.15% Tween 80)+1.5 ml (10 (g) Plasminogen in aqua bidest;
(2) 6 ml (100 mM Tris-Cl pH 7.2+0.15% Tween 80)+1.5 ml (7.5 mg) chromozyme PL in aqua bidest.
The detection solution must be continuously stirred. Testing substances: the testing substances are dissolved in DMSO. They are used in the test system with a highest concentration of 100 (g/ml. The solutions are prepared using PBS.
Three controls are performed:
a) positive control: using 2% DMSO in PBS;
b) negative control: assay without receptor;
1) inhibition (IC95 at 0.25 mg/ml) with dextranesulfate (MW=500.000);
2) inhibition (IC90 at 1 (g/ml) with inactivated uPA (175 (g/ml).
Incubation is done as follows:
Each well is incubated by 100 (1 of BIO-R4 (c=0.5 (g/ml) for 1 hour at room temperature under shaking. After washing three times with the washing buffer, each well is incubated for 1 hour (37° C.) with 200 (l/well blocking solution. After triple washing each well is incubated for 1 hour at room temperature under shaking with 100 (l/well uPAR (c=30 ng/ml), then the wells are washed again three times with the washing buffer. The testing substance solution and the control solution, respectively, are added (50 (l/well) and are incubated for 30 minutes at room temperature under shaking. An additional 50 (l of uPA solution (c=2.5 ng/ml) are added. After 1 hour at room temperature a triple washing is performed.
For detection, the following procedure is used:
Incubation with 50 (l each of detection solution (1) and (2) at room temperature. After 20 minutes a yellow colour will be visible (the positive control reads an extinction of 1 after 45-60 minutes). The detection is performed at 405 nm (reference is 490 nm) using a Dynatech MR 7000 ELISA reader. To obtain the percentage of inhibition the following formula is used (E stands for extinction): [formula]

uPAR, sequence (Q03405 23-305 limits assumed): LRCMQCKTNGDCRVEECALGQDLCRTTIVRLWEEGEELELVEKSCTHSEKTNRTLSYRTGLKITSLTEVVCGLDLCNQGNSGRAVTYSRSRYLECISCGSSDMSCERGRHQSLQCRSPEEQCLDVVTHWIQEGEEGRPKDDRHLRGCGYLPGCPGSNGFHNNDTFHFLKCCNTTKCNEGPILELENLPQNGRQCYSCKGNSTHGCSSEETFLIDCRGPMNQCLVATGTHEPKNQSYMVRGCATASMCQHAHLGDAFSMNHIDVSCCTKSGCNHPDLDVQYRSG

| IC50 [µM] | Compound |
| --- | --- |
| 0.0912 | CC(C)=C1Oc2cccc(OCCCN3CCC(NC(=O)c4ccc(Cl)c(S(N)(=O)=O)c4)CC3)c2C1=O [4-(3-(4-(3-aminosulfonyl-4-chlorobenzamido)piperidin-1yl)propoxy)-2-isopropylidenecumaran-3-one] |
| 0.104 | CC(C)=C1Oc2cccc(OCCOCCN3CCC(NC(=O)c4ccc(F)cc4)CC3)c2C1=O [4-[(2-(2-(4-(4-fluorobenzamido)piperidin-1-yl)ethyl)oxy)ethyloxy]-2-isopropylidenecumaran-3-one] |
| > 0.0194 | CC(C)=C1Oc2cccc(OC/C=C/CN3CCC(NC(=O)c4ccc(Cl)c(Cl)c4)CC3)c2C1=O [(E)-4-(4-(4-(3,4-dichlorobenzamido)piperidin-1-yl)-2-butenoxy)-2-isopropylidenecumaran-3-one] |
| > 0.0194 | CC(C)=C1Oc2cccc(OC/C=C\CN3CCC(NC(=O)c4ccc(Cl)c(Cl)c4)CC3)c2C1=O [(Z)-4-(4-(4-(3,4-dichlorobenzamido)piperidin-1-yl)-2-butenoxy)-2-isopropylidenecumaran-3-one] |

| Compound | IC50 [µM] |
| --- | --- |
| CC(C)=C1Oc2cccc(OCCCCN3CCC(NC(=O)c4ccc(Cl)c(Cl)c4)CC3)c2C1=O [4-(4-(4-(3,4-dichlorobenzamido)piperidin-1-yl)butoxy)-2-isopropylidenecumaran-3-one] | > 0.0193 |
